# Reference: PubChem BioAssay (NCI)
#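 Growth conditions: 96-well plates. Treatment: test compound, 48 hours, 5 concentrations. Analysis: linear interpolation between bracketing concentrations; unreached endpoints set to highest concentration. The concentration for full growth arrest is given as TGI.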
# Legend:
# Test in all cases: growth of human tumour cells (NCI), 48 h
# [1] = test system: SF-539 CNS
# [2] = test system: HT29 colon
# [3] = test system: RPMI-8226 leukemia
# [4] = test system: SF-268 CNS
# [5] = test system: NCI-H460 lung
# [6] = test system: MDA-MB-231 breast
# [7] = test system: A549 NSCLC
# [8] = test system: SN12C renal
# [9] = test system: SK-OV-3 ovarian
# [10] = test system: MDA-MB-435
# [11] = test system: ACHN renal
# [12] = test system: OVCAR-4 ovarian
# [13] = test system: SW-620 colon
# [14] = test system: EKVX NSCLC
# [15] = test system: HCT-116 colon
# [16] = test system: U251 CNS
# [17] = test system: SNB-75 CNS
# [18] = test system: NCI-H522 lung
# [19] = test system: MCF7 breast
# [20] = test system: SK-MEL-28 melanoma
# [21] = test system: M14 melanoma
# [22] = test system: PC-3 prostate
# [23] = test system: UO-31 renal
# [24] = test system: HL-60(TB) leukemia
# [25] = test system: 786-0 renal
# [26] = test system: RXF 393 renal
# [27] = test system: CCRF-CEM leukemia
# [28] = test system: A498 renal
# [29] = test system: OVCAR-8 ovarian
# [30] = test system: TK-10 renal
# [31] = test system: OVCAR-5 ovarian
# [32] = test system: KM12 colon
# [33] = test system: MALME-3M melanoma
# [34] = test system: COLO 205 colon
# [35] = test system: SNB-19 CNS
# [36] = test system: LOX IMVI melanoma
# [37] = test system: DU-145 prostate
# [38] = test system: HCT-15 colon
# [39] = test system: NCI/ADR-RES ovarian
# [40] = test system: SF-295 CNS
# [41] = test system: UACC-62 melanoma
# [42] = test system: NCI-H226 lung
# [43] = test system: MDA-N
# [44] = test system: HCC-2998 colon
# [45] = test system: MOLT-4 leukemia
# [46] = test system: SR leukemia
# [47] = test system: BT-549 breast
# [48] = test system: HOP-62 NSCLC
# [49] = test system: SK-MEL-5 melanoma
# [50] = test system: CAKI-1 renal
# [51] = test system: IGROV1 ovarian
# [52] = test system: HS 578T breast
# [53] = test system: NCI-H23 lung
# [54] = test system: K-562 leukemia
# [55] = test system: HOP-92 NSCLC
# [56] = test system: OVCAR-3 ovarian
# [57] = test system: T-47D breast
# [58] = test system: UACC-257 melanoma
smiles,measurement,setting,value
CCOC(=O)NN(C(=O)OCC)C(C(=O)c1ccccc1)N(NC(=O)OCC)C(=O)OCC,TGI,[1],> 100 µM
same,TGI,[2],> 100 µM
same,TGI,[3],> 100 µM
same,TGI,[4],> 100 µM
same,TGI,[5],> 100 µM
same,TGI,[6],> 100 µM
same,TGI,[7],> 100 µM
same,TGI,[8],> 100 µM
same,TGI,[9],> 100 µM
same,TGI,[10],> 100 µM
same,TGI,[11],> 100 µM
same,TGI,[12],> 100 µM
same,TGI,[13],> 100 µM
same,TGI,[14],> 100 µM
same,TGI,[15],> 100 µM
same,TGI,[16],> 100 µM
same,TGI,[17],> 100 µM
same,TGI,[18],> 100 µM
same,TGI,[19],> 100 µM
same,TGI,[20],> 100 µM
same,TGI,[21],> 100 µM
same,TGI,[22],> 100 µM
same,TGI,[23],> 100 µM
same,TGI,[24],> 100 µM
same,TGI,[25],> 100 µM
same,TGI,[26],> 100 µM
same,TGI,[27],> 100 µM
same,TGI,[28],> 100 µM
same,TGI,[29],> 100 µM
same,TGI,[30],> 100 µM
same,TGI,[31],> 100 µM
same,TGI,[32],> 100 µM
same,TGI,[33],> 100 µM
same,TGI,[34],> 100 µM
same,TGI,[35],> 100 µM
same,TGI,[36],> 100 µM
same,TGI,[37],> 100 µM
same,TGI,[38],> 100 µM
same,TGI,[39],> 100 µM
same,TGI,[40],> 100 µM
same,TGI,[41],> 100 µM
same,TGI,[42],> 100 µM
same,TGI,[43],> 100 µM
same,TGI,[44],> 100 µM
same,TGI,[45],> 100 µM
same,TGI,[46],> 100 µM
same,TGI,[47],> 100 µM
same,TGI,[48],> 100 µM
same,TGI,[49],> 100 µM
same,TGI,[50],> 100 µM
same,TGI,[51],> 100 µM
same,TGI,[52],> 100 µM
same,TGI,[53],> 100 µM
same,TGI,[54],> 100 µM
same,TGI,[55],> 100 µM
same,TGI,[56],> 100 µM
same,TGI,[57],> 100 µM
same,TGI,[58],> 100 µM
COC(=O)c1c2c(cc3c1CC1(Cc4ccccc4C1)C3)CCC2,TGI,[1],> 100 µM
same,TGI,[2],34 µM
same,TGI,[3],45.8 µM
same,TGI,[4],> 100 µM
same,TGI,[5],> 100 µM
same,TGI,[6],44.9 µM
same,TGI,[7],> 100 µM
same,TGI,[8],95.8 µM
same,TGI,[9],> 100 µM
same,TGI,[10],39.1 µM
same,TGI,[11],86.8 µM
same,TGI,[12],> 100 µM
same,TGI,[13],39.7 µM
same,TGI,[14],98.7 µM
same,TGI,[15],84.4 µM
same,TGI,[16],48.6 µM
same,TGI,[17],> 100 µM
same,TGI,[18],35.2 µM
same,TGI,[19],23.4 µM
same,TGI,[20],> 100 µM
same,TGI,[22],48.1 µM
same,TGI,[23],> 100 µM
same,TGI,[24],69.5 µM
same,TGI,[25],> 100 µM
same,TGI,[26],52.9 µM
same,TGI,[27],40.9 µM
same,TGI,[28],> 100 µM
same,TGI,[29],> 100 µM
same,TGI,[30],> 100 µM
same,TGI,[31],> 100 µM
same,TGI,[32],70.2 µM
same,TGI,[33],67.2 µM
same,TGI,[34],42.1 µM
same,TGI,[36],34 µM
same,TGI,[37],> 100 µM
same,TGI,[38],> 100 µM
same,TGI,[39],96.1 µM
same,TGI,[40],61.7 µM
same,TGI,[41],58.8 µM
same,TGI,[42],> 100 µM
same,TGI,[43],33.9 µM
same,TGI,[44],98.7 µM
same,TGI,[45],40.2 µM
same,TGI,[46],54.2 µM
same,TGI,[47],95.5 µM
same,TGI,[48],> 100 µM
same,TGI,[49],31.7 µM
same,TGI,[50],78.2 µM
same,TGI,[51],> 100 µM
same,TGI,[52],79.7 µM
same,TGI,[53],> 100 µM
same,TGI,[54],24.3 µM
same,TGI,[55],> 100 µM
same,TGI,[56],47.6 µM
same,TGI,[57],43.2 µM
same,TGI,[58],47 µM
